According to patent US7868163B2, “Adenyl dinucleotides with antitumour activity and a method of preparing thereof” (Universita' Degli Studi Di Genova, priority 2005, dated 2011):
Read-outs that look alike come from different tables or passages of the source.

Legend:
[1] = Storage stability of purified lyophilised peaks; conditions: stored at −20° C., several months (approx. 6)
Protocol: The cyclase purified from A. polypoides was used for the production of the dinucleotides for structural and functional studies. In a total volume of 0.4 ml of 10 mM Tris-HCl, pH 7.0, 0.05 mg of purified cyclase were incubated with 1 mM cADPR (or NAD^+), 5 mM adenine and 2 mM MgCl2 at room temperature. cADPR or NAD^+ was added to the reaction mixture every 6 hours, while every 24 hours fresh cyclase was added and an aliquot of the incubation was deproteinised with TCA (5% final concentration) and analysed by HPLC (analytical phosphate) to monitor dinucleotide production. After 3-5 days, the resulting incubation was extracted with TCA and 250 μl aliquots were injected into an HPLC column (preparative phosphate). The P18, P24 and P31 peaks were collected, lyophilised in a RotoVapor, re-dissolved in deionised water and injected into an HPLC column (preparative formate). […] The purified peaks produced by Axinella cyclase were used in in vitro experiments on the various cell types described hereinafter, for the enzymatic production of mononucleotides and nucleosides (see below), as internal and external HPLC standards to identify the dinucleotides in cell extracts, and for detecting the absorption spectra stored in the liquid chromatograph library as standards.

CD38^− HeLa cells = assay: Intracellular calcium assay (FURA 2-AM), CD38- HeLa; type: cell-based, human; conditions: 10 μM for 18 hours; for tapsigargine-induced release of calcium from ER stores [Ca^2+]i: 1 μM tapsigargine
Protocol: Adherent CD38^+ and CD38^− human HeLa cells on 20 mm-diameter coverslips were incubated in complete medium in the presence of […] P18 or P24 for […]. The cells were then washed, incubated with 6 μM Fura 2-acetoxymethyl ester (FURA 2-AM) in standard saline (135 mM NaCl, 5.4 mM KCl, 1.8 mM CaCl2, 1 mM MgCl2, 5 mM Hepes, 10 mM glucose, pH 7.4) for 45 minutes at 37° C. and then washed several times with saline. Calcium measurements were performed in a 200-μl chamber mounted on an inverted microscope, as described in detail in Zocchi E., et al. (1998) J. Biol. Chem. 273, 8017-8024. After determination of basal [Ca^2+]i levels, 1 μM tapsigargine was added to induce the release of calcium from tapsigargine-sensitive stores ([…]). The parameter values needed for calibration were obtained at the end of the experimental measurements, as described in Zocchi E., et al. (1998) J. Biol. Chem. 273, 8017-8024.
Basal cytosolic calcium and tapsigargine-induced release of calcium from […] (ER) stores (in bold in Table 4) were measured in CD38^+ and CD38^− HeLa cells loaded with FURA 2-AM and incubated in the absence (control) or in the presence of P18 or P24 at a concentration of 10 μM for 18 hours. The results obtained, expressed as [Ca^2+]I nanomolarity, are summarised in Table 4, showing mean results from 8 separate experiments (s.d.≦15% of the mean value).

Recombinant CD38 = assay: Hydrolysis by recombinant CD38
Protocol: (§1) ADP-ribosyl cyclases from lower and higher Metazoa were incubated in the presence of 0.1 mM cADPR and 1 mM adenine at pH 7.4 in 10 mM Tris-HCl (A, B and C) or in PBS-glucose (D) at 22° C. (A and B) or at 37° C. (C and D) for 4 hours. Aliquots of the various incubations were deproteinised with TCA (trichloroacetic acid) and subjected to HPLC (analytical phosphate). Chromatograms representative of each incubation are shown. A. A. polypoides; B. A. californica; C. Human CD38 (recombinant); D. Human HeLa cells transfected with sense and antisense human CD38 (dashed chromatogram).
(§2) In table 1, the absolute values of the peak-forming and -hydrolysing activities are compared with the cADPR-forming and -hydrolysing activities for each enzyme. The activities are expressed as nmol/min/mg.

HL60 = assay: MTT reduction proliferation assay, HL60; type: cell-based, human; conditions: HL60 promyelocytic leukemia, 24 hours
Protocol: (§3) The effect of P18 and P24 on the proliferation of several cell lines was determined by the MTT reduction assay (Mosmann, T. (1983) J. Immunol. Methods 65, 55-63). Briefly, cells were seeded at a concentration of 3×10^4/well in flat-bottomed 96-well plates and grown in complete medium in the presence of various concentrations (ranging between 20 and 0.4 μM) of purified dinucleotides. After 24 hours, 10 μl of a 5 mg/ml solution of MTT were added to each well and the plates incubated for a further 2 hours. The supernatant was then removed from each well and the blue crystals produced by the reduction of the dye were dissolved in DMSO (200 μl/well). The optical absorbance at 570 nm was determined with a BioRad microplate reader.
(§4) In these experiments, cells were seeded onto 96 well plates (3×10^4 cells per well) and incubated in the presence of increasing concentrations of P18 or P24. After 24 hours, the percentage of viable cells was evaluated by spectrophotometric measurement of the concentration of reduced MTT (see Materials and Methods). The means of at least three separate experiments are shown (s.d.≦20% of the mean value). […]

CD38^− cells = assay: Uptake of extracellularly added dinucleotides in CD38- cells; type: in vitro ADME, human; conditions: 15 μM added extracellularly
[2] = test system: HeLa-CD38^+ (whole cells); assay: Hydrolysis by CD38+ HeLa whole cells
Protocol: as §1, §2

Acid hydrolysis = type: physicochemical; conditions: yielding adenine and ADPR
K562 = assay: MTT reduction proliferation assay, K562; type: cell-based, human; conditions: K562 proerythroblastic leukemia, 24 hours
Protocol: as §3, §4

Row | SMILES | degradation on storage [1] | ER stores-calcium, % of the control (CD38^− HeLa cells) [%] | basal [Ca^2+]i, % of the control (CD38^− HeLa cells) [%] | basal cytosolic free calcium [Ca^2+]i (CD38^− HeLa cells) [nM] | tapsigargine-induced release of calcium from ER stores [Ca^2+]i (CD38^− HeLa cells) [nM] | resistance to CD38 catalysed hydrolysis (Recombinant CD38; recombinant CD38) | hydrolysis activity (Recombinant CD38; recombinant CD38, P18 and P24 to adenine and ADPR) | IC50 (HL60) [µM] | rate of increase of intracellular concentration (uptake) (CD38^− cells) | hydrolysis activity ([2]; HeLa-CD38^+ whole cells, P18 and P24 to adenine and ADPR) | sensitivity to acid hydrolysis (Acid hydrolysis) | IC50 (K562) [µM] | hydrolysis activity (Recombinant CD38) | hydrolysis activity [2]
1 | Nc1ncnc2c1ncn2[C@@H]1O[C@H](COP(=O)(O)OP(=O)(O)OC[C@H]2O[C@@H](n3cnc4ncnc-4c3N)[C@H](O)[C@@H]2O)[C@@H](O)[C@H]1O [P18] | no dinucleotide degradation was observed | 78 | 52 | 12 | 366 | resistance | 6.0^1 nmol/min/mg | 26 | approx. 2.4 pmol/min/mg | 0.24^1 nmol/min/mg | sensitive to acid hydrolysis | 44 | – | –
2 | Nc1ncn([C@@H]2O[C@H](COP(=O)(O)OP(=O)(O)OC[C@H]3O[C@@H](n4cnc5c(N)ncnc54)[C@H](O)[C@@H]3O)[C@@H](O)[C@H]2O)c2ncnc1-2 [P24] | no dinucleotide degradation was observed | 60 | 191 | 44 | 290 | – | – | 2 | approx. 2.4 pmol/min/mg | – | sensitive to acid hydrolysis | 5.8 | 0.25^1 nmol/min/mg | 0.06^1 nmol/min/mg
